Test system: MV-4-11 cells
Test: Gene expression microarray analysis (Affymetrix PrimeView) and GSEA
Type: cell-based, human
Set-up: RFU PODN (11730768_x_at) / Fold change /veh PODN (11730768_x_at) / RFU LINC00158 (11744669_a_at) / Fold change /veh LINC00158 (11744669_a_at) / RFU DUSP10 (11751237_a_at) / Fold change /veh DUSP10 (11751237_a_at) / RFU ID3 (11757404_x_at) / Fold change /veh ID3 (11757404_x_at) / RFU PLEKHG5 (11737974_s_at) / Fold change /veh PLEKHG5 (11737974_s_at) / RFU LRRC4B (11730491_at) / Fold change /veh LRRC4B (11730491_at) / RFU GIMAP4 (11747438_a_at) / Fold change /veh GIMAP4 (11747438_a_at) / RFU KRT8 (11758183_x_at) / Fold change /veh KRT8 (11758183_x_at) / RFU CNN1 (11734310_a_at) / Fold change /veh CNN1 (11734310_a_at) / RFU VPS37D (11726825_at) / Fold change /veh VPS37D (11726825_at) / RFU C10orf10 (11716522_x_at) / Fold change /veh C10orf10 (11716522_x_at) / RFU KIR2DL2 /// KIR2DL4 /// KIR2DL5A /// KIR2DL5B /// KIR2DS1 /// KIR2DS2 /// KIR2DS3 /// KIR2DS4 /// KIR3DL3 /// KIR3DL3 /// KIR3DS1 (11738374_at) / Fold change /veh KIR2DL2 /// KIR2DL4 /// KIR2DL5A /// KIR2DL5B /// KIR2DS1 /// KIR2DS2 /// KIR2DS3 /// KIR2DS4 /// KIR3DL3 /// KIR3DL3 /// KIR3DS1 (11738374_at) / RFU C1QL1 (11718748_at) / Fold change /veh C1QL1 (11718748_at) / RFU TMPRSS4 (11747572_a_at) / Fold change /veh TMPRSS4 (11747572_a_at) / RFU HAMP (11756126_x_at) / Fold change /veh HAMP (11756126_x_at) / RFU RNFT2 (11725882_a_at) / Fold change /veh RNFT2 (11725882_a_at) / RFU NR4A2 (11747474_a_at) / Fold change /veh NR4A2 (11747474_a_at) / RFU ABCC12 (11746883_a_at) / Fold change /veh ABCC12 (11746883_a_at) / RFU TMEM136 (11760407_x_at) / Fold change /veh TMEM136 (11760407_x_at) / RFU CLDN22 /// WWC2 (11732394_at) / Fold change /veh CLDN22 /// WWC2 (11732394_at) / RFU HLA-DPB1 (11760878_x_at) / Fold change /veh HLA-DPB1 (11760878_x_at) / RFU SPINT1 (11716480_a_at) / Fold change /veh SPINT1 (11716480_a_at) / RFU GAP43 (11754022_s_at) / Fold change /veh GAP43 (11754022_s_at) / RFU A4GNT (11735810_at) / Fold change /veh A4GNT (11735810_at) / RFU PRB3 (11715151_x_at) / Fold change /veh PRB3 (11715151_x_at) / RFU TUBB4B (11761932_at) / Fold change /veh TUBB4B (11761932_at) / RFU CAPN14 (11732068_a_at) / Fold change /veh CAPN14 (11732068_a_at) / RFU TMCC2 (11721928_a_at) / Fold change /veh TMCC2 (11721928_a_at) / RFU IRGQ (11745062_a_at) / Fold change /veh IRGQ (11745062_a_at) / RFU FAM174B (11720279_a_at) / Fold change /veh FAM174B (11720279_a_at) / RFU TMPRSS4 (11748680_a_at) / Fold change /veh TMPRSS4 (11748680_a_at) / RFU FAM212B (11763350_a_at) / Fold change /veh FAM212B (11763350_a_at) / RFU PLEKHG5 (11743358_a_at) / Fold change /veh PLEKHG5 (11743358_a_at) / RFU ZSCAN30 (11745921_a_at) / Fold change /veh ZSCAN30 (11745921_a_at) / RFU CMKLR1 (11741424_a_at) / Fold change /veh CMKLR1 (11741424_a_at) / RFU LOC101060620 /// MAPK8IP1 (11723275_at) / Fold change /veh LOC101060620 /// MAPK8IP1 (11723275_at) / RFU SPTSSB (11747773_x_at) / Fold change /veh SPTSSB (11747773_x_at) / RFU PRSS12 (11739890_at) / Fold change /veh PRSS12 (11739890_at) / RFU BIN1 (11741810_x_at) / Fold change /veh BIN1 (11741810_x_at) / RFU WNT11 (11732464_a_at) / Fold change /veh WNT11 (11732464_a_at) / RFU C10orf10 (11716521_a_at) / Fold change /veh C10orf10 (11716521_a_at) / RFU C5orf56 (11738089_at) / Fold change /veh C5orf56 (11738089_at) / RFU CYB561 (11721691_x_at) / Fold change /veh CYB561 (11721691_x_at) / RFU ANKRD19P (11752326_a_at) / Fold change /veh ANKRD19P (11752326_a_at) / RFU OR2T12 /// OR2T33 /// OR2T8 (11738714_s_at) / Fold change /veh OR2T12 /// OR2T33 /// OR2T8 (11738714_s_at) / RFU VCAN (11748164_a_at) / Fold change /veh VCAN (11748164_a_at) / RFU JSRP1 (11732532_at) / Fold change /veh JSRP1 (11732532_at) / RFU KRTAP10-11 (11738290_x_at) / Fold change /veh KRTAP10-11 (11738290_x_at) / RFU MYO3A (11730013_a_at) / Fold change /veh MYO3A (11730013_a_at) / RFU EBF3 (11725865_a_at) / Fold change /veh EBF3 (11725865_a_at) / RFU CAMK2N1 (11719241_x_at) / Fold change /veh CAMK2N1 (11719241_x_at) / RFU C5orf56 (11738088_a_at) / Fold change /veh C5orf56 (11738088_a_at) / RFU OLFML3 (11715873_a_at) / Fold change /veh OLFML3 (11715873_a_at) / RFU LOC100653217 /// NTM (11731650_a_at) / Fold change /veh LOC100653217 /// NTM (11731650_a_at) / RFU MAPK11 (11762145_a_at) / Fold change /veh MAPK11 (11762145_a_at) / RFU FIZ1 (11724087_x_at) / Fold change /veh FIZ1 (11724087_x_at) / RFU OASL (11726364_x_at) / Fold change /veh OASL (11726364_x_at) / RFU SOX15 (11748057_x_at) / Fold change /veh SOX15 (11748057_x_at) / RFU CD79A (11719716_a_at) / Fold change /veh CD79A (11719716_a_at) / RFU HIST1H1D (11736915_at) / Fold change /veh HIST1H1D (11736915_at) / RFU CASKIN2 (11723855_a_at) / Fold change /veh CASKIN2 (11723855_a_at) / RFU LOC730098 (11760151_x_at) / Fold change /veh LOC730098 (11760151_x_at) / RFU OR4N2 (11742367_at) / Fold change /veh OR4N2 (11742367_at) / RFU PRRT2 (11749266_a_at) / Fold change /veh PRRT2 (11749266_a_at) / RFU SNX32 (11753110_a_at) / Fold change /veh SNX32 (11753110_a_at) / RFU CDHR5 (11726645_a_at) / Fold change /veh CDHR5 (11726645_a_at) / RFU RCAN1 (11760418_a_at) / Fold change /veh RCAN1 (11760418_a_at) / RFU FAM167A (11723789_a_at) / Fold change /veh FAM167A (11723789_a_at) / RFU FAM26E (11764081_at) / Fold change /veh FAM26E (11764081_at) / RFU ISYNA1 (11749810_s_at) / Fold change /veh ISYNA1 (11749810_s_at) / RFU ACY1 (11761880_at) / Fold change /veh ACY1 (11761880_at) / RFU 11764098_at / Fold change /veh 11764098_at / RFU SAMD14 (11745864_x_at) / Fold change /veh SAMD14 (11745864_x_at) / RFU NPB (11741838_a_at) / Fold change /veh NPB (11741838_a_at) / RFU TMPRSS6 (11731388_a_at) / Fold change /veh TMPRSS6 (11731388_a_at) / RFU KRTAP10-2 (11738614_at) / Fold change /veh KRTAP10-2 (11738614_at) / RFU ARHGAP8 /// PRR5-ARHGAP8 (11727945_x_at) / Fold change /veh ARHGAP8 /// PRR5-ARHGAP8 (11727945_x_at) / RFU KRTAP5-7 /// NADSYN1 (11734609_at) / Fold change /veh KRTAP5-7 /// NADSYN1 (11734609_at) / RFU RASL12 (11751679_a_at) / Fold change /veh RASL12 (11751679_a_at) / RFU CDKN2B (11736163_a_at) / Fold change /veh CDKN2B (11736163_a_at) / RFU PRF1 (11729649_at) / Fold change /veh PRF1 (11729649_at) / RFU, ZNF638 /// ZNF638-IT1 / Fold change vs veh, ZNF638 /// ZNF638-IT1 / RFU, PANK3 / Fold change vs veh, PANK3 / RFU, SH3YL1 / Fold change vs veh, SH3YL1 / RFU, ZEB2 / Fold change vs veh, ZEB2 / RFU, NRIP1 / Fold change vs veh, NRIP1 / RFU, PTTG1IP / Fold change vs veh, PTTG1IP / RFU, CAPN2 / Fold change vs veh, CAPN2 / RFU, MED14 / Fold change vs veh, MED14 / RFU, SNORA58 / Fold change vs veh, SNORA58 / RFU, C1orf63 / Fold change vs veh, C1orf63 / RFU, LRRFIP1 / Fold change vs veh, LRRFIP1 / RFU, NDUFAF7 / Fold change vs veh, NDUFAF7 / RFU, SLC12A2 / Fold change vs veh, SLC12A2 / RFU, IBTK / Fold change vs veh, IBTK / RFU, ESF1 / Fold change vs veh, ESF1 / Fold change vs veh, TMEM50B / RFU, TAOK1 / Fold change vs veh, TAOK1 / RFU, ACBD3 / Fold change vs veh, ACBD3 / RFU, TMA16 / Fold change vs veh, TMA16 / RFU, RWDD3 / Fold change vs veh, RWDD3 / RFU, BCAT1 / Fold change vs veh, BCAT1 / RFU, EDEM3 / Fold change vs veh, EDEM3 / RFU, TMEM33 / Fold change vs veh, TMEM33 / RFU, WDR75 / Fold change vs veh, WDR75 / RFU, AHCTF1 / Fold change vs veh, AHCTF1 / RFU, TFRC / Fold change vs veh, TFRC / RFU, ZDHHC17 / Fold change vs veh, ZDHHC17 / RFU, NOM1 / Fold change vs veh, NOM1 / RFU, ARL8B / Fold change vs veh, ARL8B / RFU, ZBTB11 / Fold change vs veh, ZBTB11 / RFU, TAMM41 / Fold change vs veh, TAMM41 / RFU, KIAA1704 /// LOC100996395 / Fold change vs veh, KIAA1704 /// LOC100996395 / RFU, ING1 / Fold change vs veh, ING1 / RFU, TRMT61B / Fold change vs veh, TRMT61B / RFU, FUBP3 / Fold change vs veh, FUBP3 / RFU, TP53 / Fold change vs veh, TP53 / RFU, TNKS2 / Fold change vs veh, TNKS2 / RFU, ZFP14 / Fold change vs veh, ZFP14 / RFU, ACTR2 / Fold change vs veh, ACTR2 / RFU, PPP3R1 / Fold change vs veh, PPP3R1 / RFU, PIK3R1 / Fold change vs veh, PIK3R1 / RFU, HNRNPA1 / Fold change vs veh, HNRNPA1 / RFU, RNF170 / Fold change vs veh, RNF170 / RFU, ZNF28 / Fold change vs veh, ZNF28 / RFU, RNGTT / Fold change vs veh, RNGTT / RFU, OGT / Fold change vs veh, OGT / RFU, BRD1 / Fold change vs veh, BRD1 / RFU, MARS / Fold change vs veh, MARS / RFU, ZNF655 / Fold change vs veh, ZNF655 / RFU, FAHD1 / Fold change vs veh, FAHD1 / RFU, BDP1 / Fold change vs veh, BDP1 / RFU, LRRCC1 / Fold change vs veh, LRRCC1 / RFU, ARID1A / Fold change vs veh, ARID1A / RFU, ZNF146 / Fold change vs veh, ZNF146 / RFU, ZNF330 / Fold change vs veh, ZNF330 / RFU, GPN3 / Fold change vs veh, GPN3 / RFU, C9orf123 / Fold change vs veh, C9orf123 / RFU, N4BP2L2 / Fold change vs veh, N4BP2L2 / RFU, ARFIP1 / Fold change vs veh, ARFIP1 / RFU, FAM179B / Fold change vs veh, FAM179B / RFU, BCL10 / Fold change vs veh, BCL10 / RFU, UHRF1BP1L / Fold change vs veh, UHRF1BP1L / RFU, BET1 / Fold change vs veh, BET1 / RFU, CNOT2 / Fold change vs veh, CNOT2 / RFU, ZNF268 / Fold change vs veh, ZNF268 / Fold change vs veh, ZNF507 / RFU, DGCR2 / Fold change vs veh, DGCR2 / RFU, WDSUB1 / Fold change vs veh, WDSUB1 / Fold change vs veh, HSP90B1 /// MIR3652 / RFU, ADSS / Fold change vs veh, ADSS / RFU, GK / Fold change vs veh, GK / RFU, ZNF148 / Fold change vs veh, ZNF148 / RFU, TAF9 / Fold change vs veh, TAF9 / RFU, SLC1A5 / Fold change vs veh, SLC1A5 / RFU, SLMO2 / Fold change vs veh, SLMO2 / RFU, ABCC4 / Fold change vs veh, ABCC4 / RFU, LOC101060439 /// RAP1B / Fold change vs veh, LOC101060439 /// RAP1B / RFU, RFX7 / Fold change vs veh, RFX7 / RFU, GTPBP10 / Fold change vs veh, GTPBP10 / RFU, CNEP1R1 / Fold change vs veh, CNEP1R1 / RFU, BIVM-ERCC5 /// ERCC5 / Fold change vs veh, BIVM-ERCC5 /// ERCC5 / RFU, ILF3 / Fold change vs veh, ILF3 / RFU 11762660_at / Fold change /veh 11762660_at / RFU VCAN (11757783_s_at) / Fold change /veh VCAN (11757783_s_at) / RFU DDX43 (11728927_at) / Fold change /veh DDX43 (11728927_at) / RFU KRT8 (11758188_x_at) / Fold change /veh KRT8 (11758188_x_at) / RFU NKD1 (11759106_at) / Fold change /veh NKD1 (11759106_at) / RFU SRD5A1 (11742802_a_at) / Fold change /veh SRD5A1 (11742802_a_at) / RFU TPSAB1 /// TPSB2 (11721975_s_at) / Fold change /veh TPSAB1 /// TPSB2 (11721975_s_at) / RFU GSTM3 (11746129_a_at) / Fold change /veh GSTM3 (11746129_a_at) / RFU IL23R (11737362_x_at) / Fold change /veh IL23R (11737362_x_at) / RFU TMEM51 (11727254_a_at) / Fold change /veh TMEM51 (11727254_a_at) / RFU PIWIL2 (11732686_x_at) / Fold change /veh PIWIL2 (11732686_x_at) / RFU ORM1 (11744905_x_at) / Fold change /veh ORM1 (11744905_x_at) / RFU CCDC152 (11743942_at) / Fold change /veh CCDC152 (11743942_at) / RFU ECM1 (11717891_a_at) / Fold change /veh ECM1 (11717891_a_at) / RFU IL23R (11748794_a_at) / Fold change /veh IL23R (11748794_a_at) / RFU TNFAIP8L3 (11732012_x_at) / Fold change /veh TNFAIP8L3 (11732012_x_at) / RFU MBOAT4 (11741988_at) / Fold change /veh MBOAT4 (11741988_at) / RFU 11764193_at / Fold change /veh 11764193_at / RFU TMEM53 (11763286_at) / Fold change /veh TMEM53 (11763286_at) / RFU MAGEB2 (11727129_at) / Fold change /veh MAGEB2 (11727129_at) / RFU TMEM200A (11744735_a_at) / Fold change /veh TMEM200A (11744735_a_at) / RFU CCDC152 (11751479_a_at) / Fold change /veh CCDC152 (11751479_a_at) / RFU FAM211A (11726209_a_at) / Fold change /veh FAM211A (11726209_a_at) / RFU RGS16 (11746705_a_at) / Fold change /veh RGS16 (11746705_a_at) / RFU VCAN (11755009_s_at) / Fold change /veh VCAN (11755009_s_at) / RFU RHOB (11743442_s_at) / Fold change /veh RHOB (11743442_s_at) / RFU RGS16 (11720943_a_at) / Fold change /veh RGS16 (11720943_a_at) / RFU RGS16 (11720944_at) / Fold change /veh RGS16 (11720944_at) / RFU, VPS4B / Fold change vs veh, VPS4B / RFU, CREB1 / Fold change vs veh, CREB1 / RFU, DNAJC13 / Fold change vs veh, DNAJC13 / RFU, GNAQ / Fold change vs veh, GNAQ / RFU, CDK5R1 / Fold change vs veh, CDK5R1 / RFU, ZRANB3 / Fold change vs veh, ZRANB3 / RFU, CUL4A / Fold change vs veh, CUL4A / RFU, CCNY / Fold change vs veh, CCNY / RFU, UFL1 / Fold change vs veh, UFL1 / RFU, COG3 / Fold change vs veh, COG3 / RFU, DIAPH2 / Fold change vs veh, DIAPH2 / RFU, SKA2 / Fold change vs veh, SKA2 / RFU, AFF3 / Fold change vs veh, AFF3 / RFU, LMF1 / Fold change vs veh, LMF1 / RFU, IPO11 / Fold change vs veh, IPO11 / RFU, DFFB / Fold change vs veh, DFFB / RFU, FOXP1 / Fold change vs veh, FOXP1 / RFU, CARD8 / Fold change vs veh, CARD8 / RFU, STRN3 / Fold change vs veh, STRN3 / RFU, ADK / Fold change vs veh, ADK / RFU, RASSF2 / Fold change vs veh, RASSF2 / RFU, WIPF1 / Fold change vs veh, WIPF1 / RFU, LARP1B / Fold change vs veh, LARP1B / RFU, RASA1 / Fold change vs veh, RASA1 / RFU, RB1 / Fold change vs veh, RB1 / RFU, PPFIA1 / Fold change vs veh, PPFIA1 / RFU, MAT2A / Fold change vs veh, MAT2A / RFU, CCT5 / Fold change vs veh, CCT5 / RFU, WDR92 / Fold change vs veh, WDR92 / RFU, CUX1 / Fold change vs veh, CUX1 / RFU, TTC7A / Fold change vs veh, TTC7A / RFU, TMEM135 / Fold change vs veh, TMEM135 / RFU, DEPTOR / Fold change vs veh, DEPTOR / RFU, CPM / Fold change vs veh, CPM / RFU, DNAJB6 / Fold change vs veh, DNAJB6 / RFU, CACNA2D3 / Fold change vs veh, CACNA2D3 / RFU, DTX4 / Fold change vs veh, DTX4 / RFU, TFCP2 / Fold change vs veh, TFCP2 / RFU, GMCL1 /// GMCL1P1 / Fold change vs veh, GMCL1 /// GMCL1P1 / RFU, AEBP2 / Fold change vs veh, AEBP2 / RFU, SNHG1 /// SNORD22 /// SNORD25 /// SNORD26 /// SNORD27 /// SNORD28 /// SNORD29 /// SNORD31 / Fold change vs veh, SNHG1 /// SNORD22 /// SNORD25 /// SNORD26 /// SNORD27 /// SNORD28 /// SNORD29 /// SNORD31 / Fold change (Aza/veh), C12orf56 (ProbeSet 11735607_a_at) / Fold change (ACY-1035/veh), C12orf56 (ProbeSet 11735607_a_at) / Fold change (Aza/veh), FGFR1OP (ProbeSet 11751329_s_at) / Fold change (ACY-1035/veh), FGFR1OP (ProbeSet 11751329_s_at) / Fold change (Aza/veh), VPS36 (ProbeSet 11739960_a_at) / Fold change (ACY-1035/veh), VPS36 (ProbeSet 11739960_a_at) / RFU SYPL1 (11715823_x_at) / Fold change /veh SYPL1 (11715823_x_at) / RFU IGFBP7 (11715501_s_at) / Fold change /veh IGFBP7 (11715501_s_at) / RFU REEP3 (11722064_at) / Fold change /veh REEP3 (11722064_at) / RFU IGLL1 (11728026_x_at) / Fold change /veh IGLL1 (11728026_x_at): dose or concentration left out as unconfirmed
Conditions: ProbeSet 11753234_a_at; LIST B

Nc1ccc(-c2cccs2)cc1NC(=O)c1ccc2c(c1)cc(C1CC1)n2CCN1CCOCC1 [ACY-1035]
Fold change vs veh, TAMM41: 0.90

Source: PMC5218480 (PLoS ONE, 2017)
